Converted amounts (≈) assume the structure as drawn.
Columns and labels:
[1] = Acute toxicity in the mouse (LD50); details: in vivo, male CD1 mouse, 3 days observation
Procedure: Acute toxicities of the compounds according to the invention have been determined in the male mouse CD1 (Charles RIVER) both intravenously and orally. The LD50 were calculated after observation for 3 days by the method of REED, JJ. and MUENCH, H. (Am. J. Hy, 27 493, 1938).

[2] = tested on: tachycardia induced by isoproterenol; test: Beta-sympatholytic activity: antagonism of isoproterenol-induced tachycardia in the non-anesthetized rabbit; format: in vivo; details: for Maximum Inhibition of tachycardia (as a %): isoproterenol 0.010 mg/kg i.v.
Procedure: The technique consists of evaluating the antagonism exerted by the products with regard to induced tachycardia, in an alert rabbit, by a sympatho-stimulant agent, isoproterenol, administered in a dose of 0.010 mg/kg intravenously. The animal is placed in a restraining box and the marginal vein of the ear is catheterized. The animal's electrocardiogram is picked up by two electrodes implanted in shunt DII and connected to a telemetric transmitter. A polygraph, coupled to a receiver, simultaneously records the electrocardiogram and the cardiac rhythm by integration of the waves R.
First of all, one makes certain of the stability and reproducibility of isoprenalinic tachycardia and the substance to be studied is administered. In the case of intravenous administration of the products, the injections of isoproterenol are then repeated 5 minutes later, then every 15 minutes, until the tachycardia returns to its initial intensity. When the products are administered orally, the injections of the beta-stimulant are repeated 15, 30, 45 and 60 minutes, then 2, 3, 5, 24 and 48 hours afterwards.
The beta-sympatholytic activity is expressed by the maximum percentage decrease of the tachycardia induced by isoproterenol. The total duration of the effect is also noted.

rabbit's heart = test: Coronaro-dilatory activity on the isolated rabbit heart (technique derived from Langendorff)
Procedure: In this technique, the survival liquid perfusing the heart contains 0.5 I.U./l post-hypophysis intended for permanently maintaining a slight vaso-constriction of the coronary vascular system. The products to be studied are administered in the region of the aortic canal in a volume of 1 cm^3 over a period of 1 minute. The results are expressed as a percentage variation of the coronary output after the injection of the product with respect to the initial output, the output being measured by integration of the frequency of drops of survival liquid escaping from the heart after having passed through the coronary system.

[3] = tested on: removed duodenum of the rat, contractions caused by acetylcholine; test: Spasmolytic activity on the detached duodenum of the rat, neurotrope (versus acetylcholine; Magnus)
Source text: (§1) The spasmolytic neurotropes inhibit the contractions of the organ caused by acetylcholine,whereas the musculotropes prevent the spasms induced by barium chloride. The following table summarises the results expressed as a 50% effective concentration (EC50) in mg/l.

[4] = tested on: removed duodenum of the rat, spasms induced by barium chloride; test: Spasmolytic activity on the detached duodenum of the rat, musculotrope (versus BaCl2; Magnus)
Source text: as §1

Row | SMILES | LD50 at 72 h ([1]; iv, intravenously) | LD50 at 72 h ([1]; po, orally) | Duration of Inhibiting effect ([2]; intravenous dose 0.5 mg/kg) | Maximum Inhibition of tachycardia (as a %) ([2]; intravenous dose 0.5 mg/kg) | Duration of Inhibiting effect ([2]; intravenous dose 1 mg/kg) | Maximum Inhibition of tachycardia (as a %) ([2]; intravenous dose 1 mg/kg) | Duration of Inhibiting effect ([2]; oral dose 17.5 mg/kg) | Maximum Inhibition of tachycardia (as a %) ([2]; oral dose 17.5 mg/kg) | Duration of Inhibiting effect ([2]; oral dose 35 mg/kg) | Maximum Inhibition of tachycardia (as a %) ([2]; oral dose 35 mg/kg) | Duration of Inhibiting effect ([2]; oral dose 75 mg/kg) | Maximum Inhibition of tachycardia (as a %) ([2]; oral dose 75 mg/kg) | Duration of Inhibiting effect ([2]; oral dose 150 mg/kg) | Maximum Inhibition of tachycardia (as a %) ([2]; oral dose 150 mg/kg) | EC50 [3] | EC50 [4] | further results
1 | CC(C)NCC(O)COc1ccccc1[C@@H]1C[C@H]2CC[C@@H]1C2 (relative stereo) [Example 1, 1-isopropylamino-3-[2-(2-norbornyl exo)phenoxy]propan-2-ol] | 60 mg/kg | 800 mg/kg | more than 2 hrs | 54% | more than 2 hrs | 86% | approx. 24 hrs | 73% | approx. 48 hrs | 88% | approx. 48 hrs | 80% | more than 48 hrs | 82% | 0.18 µg/mL (≈ 0.593 µM) | 0.15 µg/mL (≈ 0.494 µM) | Duration of Inhibiting effect ([2]; intravenous dose 0.1 mg/kg): approx. 50 minutes; Maximum Inhibition of tachycardia (as a %) ([2]; intravenous dose 0.1 mg/kg): 24%; Duration of Inhibiting effect ([2]; intravenous dose 0.3 mg/kg): approx 21/2; Maximum Inhibition of tachycardia (as a %) ([2]; intravenous dose 0.3 mg/kg): 67%; Duration of Inhibiting effect ([2]; oral dose 9 mg/kg): more than 3 hrs; Maximum Inhibition of tachycardia (as a %) ([2]; oral dose 9 mg/kg): 40%; activation at 0.003 µg/mL (rabbit's heart; Oryctolagus cuniculus, dose 0.003 mg/l, increase (+) versus initial output, post-hypophysis 0.5 I.U./l, read-out: % Variation of coronary output): 13%; activation at 0.01 µg/mL (rabbit's heart; Oryctolagus cuniculus, dose 0.010 mg/l, increase (+) versus initial output, post-hypophysis 0.5 I.U./l, read-out: % Variation of coronary output): 57%; activation at 0.03 µg/mL (rabbit's heart; Oryctolagus cuniculus, dose 0.030 mg/l, increase (+) versus initial output, post-hypophysis 0.5 I.U./l, read-out: % Variation of coronary output): 133%; activation at 0.1 µg/mL (rabbit's heart; Oryctolagus cuniculus, dose 0.100 mg/l, increase (+) versus initial output, post-hypophysis 0.5 I.U./l, read-out: % Variation of coronary output): 225%; Duration of the effect (rabbit's heart; dose 0.003 mg/l): 3 min; Duration of the effect (rabbit's heart; dose 0.010 mg/l): 3 min; Duration of the effect (rabbit's heart; dose 0.030 mg/l): 15 min; Duration of the effect (rabbit's heart; dose 0.100 mg/l): 9 min; coronaro-dilatory effects (in words) (rabbit's heart; isolated rabbit heart): considerable coronaro-dilatory effects, whose intensity and duration clearly increase with the concentration
2 | CC(C)NCC(O)COc1ccccc1[C@H]1C[C@H]2CC[C@@H]1C2 (relative stereo) [Example 2, 1-isopropylamino-3-[2-(2-norbornyl endo)phenoxy]propan-2-ol] | 62 mg/kg | 675 mg/kg | approx. 40 mins | 20% | approx. 4 hrs | 67% | approx. 24 hrs | 64% | approx. 48 hrs | 60% | approx. 48 hrs | 80% | approx. 48 hrs | 81% | 0.3 µg/mL (≈ 0.989 µM) | 0.04 µg/mL (≈ 0.132 µM) | –

— patent US4157400A, “Terpenophenoxyalkylamines and pharmaceutical compositions and uses thereof” (MAR-PHA, Societe d'Etude et d'Exploitation de Marques, priority 1976, dated 1979)
